≈ marks a conversion by molar mass, not a printed value. Calls of active or inactive are those of the source. The rule behind the calls is not given here.
How the values were obtained:
A-431 = test: Cytotoxicity against human A431 cells; type: functional; details: read-out: ED50 (the source's name)
Lu1 = test: Cytotoxicity against human Lu1 cells; type: functional; details: read-out: ED50 (the source's name)
[1] = Cytotoxicity against human vinblastine-resistant KBV1 cells; type: functional; details: KB-V1, read-out: ED50 (the source's name)
Col2 = test: Cytotoxicity against human Col2 cells; type: functional; details: read-out: ED50 (the source's name)
ASK = test: Antimitotic activity in rat ASK cells at 0.32 to 20 ug/mL; type: functional, cell-based
[2] = Cytotoxicity against human BC1 cells; type: functional; details: read-out: ED50 (the source's name)
HT-1080 = test: Cytotoxicity against human HT1080 cells; type: functional; details: read-out: ED50 (the source's name)
SK-MEL-2 = test: Cytotoxicity against human SK-MEL-2 cells; type: functional; details: read-out: ED50 (the source's name)
LNCaP = test: Cytotoxicity against human LNCAP cells; type: functional; details: read-out: ED50 (the source's name)
ZR-75-1 = test: Cytotoxicity against human ZR-75-1 cells; type: functional; details: read-out: ED50 (the source's name)
P388 = test: Cytotoxicity against mouse P388 cells; type: functional; details: read-out: ED50 (the source's name)
KB = test: Cytotoxicity against human KB cells; type: functional; details: read-out: ED50 (the source's name)

Row | SMILES | EC50 (A-431) | EC50 (Lu1) | EC50 [1] | EC50 (Col2) | Activity (ASK) | EC50 [2] | EC50 (HT-1080) | EC50 (SK-MEL-2) | EC50 (LNCaP) | EC50 (ZR-75-1) | EC50 (P388) | EC50 (KB)
1 | C=C1CC[C@@H]2[C@H]([C@H]3[C@H]1CC[C@]3(C)O)C2(C)C [SPATHULENOL] | > 20 µg/mL | > 20 µg/mL | > 20 µg/mL | > 20 µg/mL | inactive | > 20 µg/mL | > 20 µg/mL | > 20 µg/mL | > 20 µg/mL | > 20 µg/mL | > 20 µg/mL | > 20 µg/mL
2 | CC1(C)C(=O)CC[C@]2(C)[C@H]3CC=C4[C@@H]5C[C@](C)(C(=O)O)CC[C@]5(C)CC[C@@]4(C)[C@]3(C)CC[C@@H]12 | > 20 µg/mL | 10 µg/mL (≈ 22 µM) | 8.5 µg/mL (≈ 18.7 µM) | > 20 µg/mL |  | > 20 µg/mL | > 20 µg/mL | 12 µg/mL (≈ 26.4 µM) | 10 µg/mL (≈ 22 µM) | 5.2 µg/mL (≈ 11.4 µM) | 0.61 µg/mL (≈ 1.34 µM) | 4.9 µg/mL (≈ 10.8 µM)
3 | C=C(C)[C@@H]1CC[C@]2(C)[C@H](CC=C3[C@@H]4C[C@@](C)(C(=O)O)CC[C@]4(C)CC[C@]32C)[C@@]1(C)CCC(=O)O [KOETJAPIC ACID] | > 20 µg/mL | > 20 µg/mL | > 20 µg/mL | > 20 µg/mL | inactive | > 20 µg/mL | > 20 µg/mL | > 20 µg/mL | > 20 µg/mL | > 20 µg/mL | > 20 µg/mL | > 20 µg/mL
4 | CC1(C)[C@H](O)CC[C@]2(C)[C@H]3CC=C4[C@@H]5C[C@](C)(C(=O)O)CC[C@]5(C)CC[C@@]4(C)[C@]3(C)CC[C@@H]12 [KATONIC ACID] | 12 µg/mL (≈ 26.3 µM) | 11 µg/mL (≈ 24.1 µM) | 15 µg/mL (≈ 32.8 µM) | > 20 µg/mL |  | 7.8 µg/mL (≈ 17.1 µM) | 19 µg/mL (≈ 41.6 µM) | 12 µg/mL (≈ 26.3 µM) | 10 µg/mL (≈ 21.9 µM) | 2.2 µg/mL (≈ 4.82 µM) | 0.11 µg/mL (≈ 0.241 µM) | 8.3 µg/mL (≈ 18.2 µM)
5 | C=C1CC[C@@H]2[C@H]([C@H]3[C@@H](C)CC[C@@H]13)C2(C)C | > 20 µg/mL | > 20 µg/mL | > 20 µg/mL | > 20 µg/mL | inactive | > 20 µg/mL | > 20 µg/mL | > 20 µg/mL | > 20 µg/mL | > 20 µg/mL | > 20 µg/mL | > 20 µg/mL
6 | C=C1CC[C@@H]2O[C@]2(C)CC[C@@H]2[C@@H]1CC2(C)C | > 20 µg/mL | > 20 µg/mL | > 20 µg/mL | > 20 µg/mL | inactive | > 20 µg/mL | > 20 µg/mL | > 20 µg/mL | > 20 µg/mL | > 20 µg/mL | > 20 µg/mL | > 20 µg/mL
